Experimental data as given in US10385007B2, “Monamine and monoamine derivatives as inhibitors of leukotriene A4 hydrolase” (Celtaxsys, Inc., priority 2016, dated 2019).
Where two headings read alike, the source gives them in different places.

Legend:
[1] = target: T1, recombinant human LTA4 hydrolase (Homo sapiens, UniProt P09960); experiment: LTA4 hydrolase homogeneous time resolved fluorescence (HTRF) assay; assay type: biochemical
T1 sequence (P09960 1-611): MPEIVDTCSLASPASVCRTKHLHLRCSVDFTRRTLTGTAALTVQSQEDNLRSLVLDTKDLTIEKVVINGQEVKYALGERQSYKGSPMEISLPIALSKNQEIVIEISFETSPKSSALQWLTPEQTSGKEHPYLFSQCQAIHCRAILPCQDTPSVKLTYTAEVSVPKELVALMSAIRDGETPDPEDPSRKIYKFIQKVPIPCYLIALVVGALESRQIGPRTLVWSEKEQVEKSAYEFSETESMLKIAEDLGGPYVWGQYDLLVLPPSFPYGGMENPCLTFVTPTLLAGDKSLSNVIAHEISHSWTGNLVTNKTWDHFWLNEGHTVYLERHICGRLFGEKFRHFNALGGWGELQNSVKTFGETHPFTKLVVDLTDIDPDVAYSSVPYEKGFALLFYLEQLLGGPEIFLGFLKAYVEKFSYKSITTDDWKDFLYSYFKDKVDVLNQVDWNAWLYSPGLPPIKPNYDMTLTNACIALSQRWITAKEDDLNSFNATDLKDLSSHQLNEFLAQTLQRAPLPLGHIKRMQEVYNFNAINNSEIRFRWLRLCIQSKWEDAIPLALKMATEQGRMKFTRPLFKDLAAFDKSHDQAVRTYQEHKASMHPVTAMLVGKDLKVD
Experimental: Compounds of the invention were tested in the LTA4 hydrolase homogeneous time resolved fluorescence (HTRF) assay to determine their ability to inhibit the hydrolysis of LTA4 to LTB4. The assay analyzes the amount of LTB4 produced.
LTA4 HTRF assay is a two-step assay involving enzymatic conversion of LTA4 to LTB4, and subsequent quantification of LTB4, product with HTRF assay.
The enzymatic conversion of LTA4 to LTB4 was performed in 384-well plates at ambient temperature in a reaction mixture containing 50 mM HEPES (pH 7.5), 0.5% BSA (fatty acid free), 18 nM recombinant human LTA4 hydrolase, 150 nM LTA4, 1% DMSO in the absence or presence of a compound of the invention. Reaction was stopped after 10 minutes incubation by diluting the incubation mixture 10-fold in 50 mM phosphate, 0.1% casein buffer (pH 7.0).
LTB4 formed was quantified with the HTRF assay in which free LTB4 competes with LTB4-XL665 conjugate (acceptor) for anti-LTB4 monoclonal antibody labeled with Europium cryptate (donor), thereby inhibiting the fluorescence energy transfer.
The LTB4 HTRF 384-well assay was carried out by incubating LTB4 samples or standards with LTB4-XL665 conjugate (7.5 ng/well) and anti-LTB4 monoclonal antibody-Europium cryptate conjugate (0.5 ng/well) in 50 mM phosphate, 0.4 M KF and 0.1% casein, buffer (pH 7.0) for two hours at ambient temperature. Plates were read in a RubyStar plate reader (BmG Labtechnologies Inc., NC) simultaneously at 620 nm and 665 nm to obtain signal ratios of 665 nm/620 nm. Results of energy transfer were expressed as delta F (%) which equaled [(signal ratio of sample-signal ratio of negative control)/(signal ratio of negative control)]×100%. Negative controls were control samples without LTB4 or LTB4-XL665.
Sample LTB4 concentrations were calculated from the LTB4 standard curve using the 4-parameter fit equation. For determination IC50 values for a particular compound of the invention, eight serially diluted compound concentrations (at 1:3.16 dilution) were used in this assay. Controls without a compound of the invention or with a reference compound were run parallel in the same assay plate.

[2] = test system: LTB4 production in human whole blood; experiment: Whole blood assay (LTB4 release upon calcium ionophore, ELISA), human; assay type: cell-based; details: production of LTB4 in whole blood, calcium ionophore stimulation
Experimental: Compounds of the invention were tested for their ability as inhibitors of LTA4 hydrolase in a whole blood assay using human, mouse, rat or dog whole blood in a manner similar to that described in Penning, T. D. et al., J. Med. Chem. (2000), 43(4): 721-735. In this assay, compounds were tested for their ability to inhibit LTB4 release upon stimulation with calcium ionophore. The LTB4 levels in supernatants were measured by ELISA.

[3] = target: T2, LTA4 hydrolase peptidase activity (Homo sapiens, UniProt P09960); experiment: Peptidase assay (hydrolysis of L-alanine-p-nitroanilide); assay type: biochemical; details: 29 nM enzyme, 1 mM L-alanine-p-nitroanilide, 1 hour
T2 sequence (P09960 1-611): T1 sequence (P09960 1-611)
Experimental: Inhibition of peptidase activity was measured for the compounds of the invention by using methods similar to those described in Kull, F. et al., The Journal of Biological Chemistry 1999, 274 (49): 34683-34690.
In brief, the enzyme (29 nM) was incubated with L-alanine-p-nitroanilide (1 mM) in 50 mM HEPES (pH 7.5), 100 mM KCL, 1% DMSO in the absence or presence of a compound of the invention for 1 hour at ambient temperature. Reaction was terminated by addition of acetic acid (1%). Formation of colored nitro-aniline was measured by the increase in absorbance at 405 nm in a Victor 2 plate reader (Wallac). Spontaneous hydrolysis of the substrate was corrected for by subtracting the absorbance of control incubations without enzyme.

[4] = inhibition of LTA4 to LTB4 hydrolysis, 18 nM enzyme, 150 nM LTA4, 10 minutes, read-out: Hydrolase IC50

Row | SMILES | IC50 [1, 4] [nM] | IC50 [2] [nM] | IC50 [3] [nM] | IC50 [1] [nM]
1 | CN(CCOc1ccc(Cc2ccccc2)cc1)Cc1ccccc1Oc1ccc(C(=O)O)cc1 [Example 4, [N-2-(4-benzylphenoxy)ethyl]-N-methyl-(2-aminomethylphenoxy)-4-benzoic acid] | 100 | 370 | 32 | 
2 | CN(CCOc1ccc(Cc2ccccc2)cc1)Cc1ccc(C(=O)O)cc1 [Example 6, [N-2-(4-benzylphenoxy)ethyl]-N-methyl-aminomethyl-4-benzoic acid] | 21 | 310 |  | 
3 | NCCc1ccc(Oc2ccc(Cc3ccccc3)cc2)cc1 [Example 3, 4-benzylphenoxy-4-phenylethylamine] |  | 89 |  | 44
4 | NCc1cccnc1NCCOc1ccc(Cc2ccccc2)cc1 [Example 11, 2-(4-benzylphenoxy)ethylamino-3-aminomethylpyridine] | 300 |  | 180 | 
5 | CN(CCOc1ccc(Cc2ccccc2)cc1)Cc1ccccc1Oc1cccc(C(=O)O)c1 [Example 12] | 15 | 150 | 23 | 
6 | NCCc1ccc(OCc2ccc(-c3ccccc3)cc2)cc1 [Example 2, (4-phenylphenyl-1-methoxy)-4-phenylethylamine] |  | 47 |  | 41

Second part, led by results:

Row | IC50 [1, 4] [nM] | IC50 [2] [nM] | IC50 [3] [nM] | SMILES | IC50 [1] [nM]
7 | 84 | 880 |  | NC(Cc1ccc(Oc2ccc(Cc3ccccc3)cc2)cc1)C(=O)O (stereo not shown) [Example 7, 3-[4-(4-benzylphenoxy)phenyl]-2-aminopropanoic acid] | 
8 | 270 | 150 |  | NCc1ccc(Oc2ccc(Cc3ccccc3)cc2)cc1 [Example 5, 4-(4-benzylphenoxy)benzylamine] | 
9 | 130 | 350 |  | CCOC(=O)C(N)Cc1ccc(Oc2ccc(Cc3ccccc3)cc2)cc1 (stereo not shown) [Example 9, ethyl 3-[4-(4-benzylphenoxy)phenyl]-2-aminopropanoate] | 
10 | 120 | 790 |  | COC(=O)C(N)Cc1ccc(Oc2ccc(Cc3ccccc3)cc2)cc1 (stereo not shown) [Example 8, methyl 3-[4-(4-benzylphenoxy)phenyl]-2-aminopropanoate] | 
11 | 260 | 910 |  | NC(CO)Cc1ccc(Oc2ccc(Cc3ccccc3)cc2)cc1 (stereo not shown) [Example 10, 3-[4-(4-benzylphenoxy)phenyl]-2-aminopropanol] | 
12 | 300 |  |  | NCc1ccc(OCc2ccc(-c3ccccc3)cc2)cc1 [Example 1, 1-(4-phenylphenyl-1-methoxy)-4-aminomethylbenzene] | 
